For 13 compounds, AC50 results are on record in ChEMBL document CHEMBL5291721, “A preclinical secondary pharmacology resource illuminates target-adverse drug reaction associations of marketed drugs” (Nat Commun, 2023).

A value given as a limit tells only on which side of the number the result lay.

For experiment [1], the target named is T1, 5-hydroxytryptamine receptor 3A (Homo sapiens, UniProt P46098).
T1 sequence (P46098 whole entry): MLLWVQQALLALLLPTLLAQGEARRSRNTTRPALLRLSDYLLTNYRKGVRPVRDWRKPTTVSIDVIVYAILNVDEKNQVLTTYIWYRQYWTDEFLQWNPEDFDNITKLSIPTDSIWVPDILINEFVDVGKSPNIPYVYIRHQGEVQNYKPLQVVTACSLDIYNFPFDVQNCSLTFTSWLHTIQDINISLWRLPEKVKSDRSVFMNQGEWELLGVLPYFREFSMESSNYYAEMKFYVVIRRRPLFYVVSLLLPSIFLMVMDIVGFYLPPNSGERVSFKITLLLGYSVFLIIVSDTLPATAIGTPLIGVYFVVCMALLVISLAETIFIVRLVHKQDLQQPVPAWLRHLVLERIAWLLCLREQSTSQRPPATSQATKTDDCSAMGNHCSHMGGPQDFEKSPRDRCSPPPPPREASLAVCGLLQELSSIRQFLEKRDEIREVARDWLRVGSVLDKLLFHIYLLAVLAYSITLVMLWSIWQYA
It counts as functional.

Experiment [2] addresses T2, Alpha-1A adrenergic receptor (Homo sapiens, UniProt P35348).
T2 sequence (P35348 whole entry): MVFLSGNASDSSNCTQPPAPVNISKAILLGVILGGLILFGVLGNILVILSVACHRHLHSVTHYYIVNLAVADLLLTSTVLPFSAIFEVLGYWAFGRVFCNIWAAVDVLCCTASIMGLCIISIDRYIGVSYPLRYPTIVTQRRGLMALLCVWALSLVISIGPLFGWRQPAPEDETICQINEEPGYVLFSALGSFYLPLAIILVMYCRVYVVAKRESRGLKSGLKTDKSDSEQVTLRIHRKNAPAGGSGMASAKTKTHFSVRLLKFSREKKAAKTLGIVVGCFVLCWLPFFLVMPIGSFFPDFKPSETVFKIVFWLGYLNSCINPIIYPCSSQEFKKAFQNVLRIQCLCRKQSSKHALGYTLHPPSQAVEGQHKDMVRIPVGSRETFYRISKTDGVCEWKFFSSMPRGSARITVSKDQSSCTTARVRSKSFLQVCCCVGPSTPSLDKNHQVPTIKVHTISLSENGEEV

Experiment [3] addresses T3, Cholecystokinin receptor type A (Homo sapiens, UniProt P32238).
T3 sequence (P32238 whole entry): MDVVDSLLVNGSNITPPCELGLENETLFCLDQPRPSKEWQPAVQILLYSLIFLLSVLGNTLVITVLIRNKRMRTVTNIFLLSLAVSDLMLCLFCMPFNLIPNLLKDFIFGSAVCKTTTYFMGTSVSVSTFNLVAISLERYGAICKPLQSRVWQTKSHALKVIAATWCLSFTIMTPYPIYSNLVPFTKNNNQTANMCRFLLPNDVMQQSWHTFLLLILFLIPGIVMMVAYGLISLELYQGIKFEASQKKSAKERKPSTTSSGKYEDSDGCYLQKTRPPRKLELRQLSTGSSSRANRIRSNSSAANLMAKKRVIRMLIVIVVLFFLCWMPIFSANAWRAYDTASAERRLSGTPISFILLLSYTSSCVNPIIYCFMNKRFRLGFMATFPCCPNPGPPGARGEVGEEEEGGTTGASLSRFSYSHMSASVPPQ

Experiment [4] concerns the target T4, Alpha-2C adrenergic receptor (Homo sapiens, UniProt P18825).
T4 sequence (P18825 whole entry): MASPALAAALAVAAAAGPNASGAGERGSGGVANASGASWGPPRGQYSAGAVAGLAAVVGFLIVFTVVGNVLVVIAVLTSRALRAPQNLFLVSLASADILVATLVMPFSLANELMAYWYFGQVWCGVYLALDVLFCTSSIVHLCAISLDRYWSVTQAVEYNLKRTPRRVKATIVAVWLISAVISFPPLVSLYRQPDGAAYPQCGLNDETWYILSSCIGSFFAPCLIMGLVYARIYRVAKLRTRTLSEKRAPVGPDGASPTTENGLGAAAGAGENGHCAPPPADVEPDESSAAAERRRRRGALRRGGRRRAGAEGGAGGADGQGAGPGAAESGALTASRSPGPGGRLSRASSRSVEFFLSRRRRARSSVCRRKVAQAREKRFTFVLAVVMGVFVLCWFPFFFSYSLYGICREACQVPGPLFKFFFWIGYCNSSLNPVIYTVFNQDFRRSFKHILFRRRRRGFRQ
The format is functional.

Experiment [5] deals with Kappa-type opioid receptor (Homo sapiens, UniProt P41145).
A further experiment deals with Histamine H2 receptor (Homo sapiens, UniProt P25021). It counts as functional, cell-based.
The target of experiment [6] is T5, 5-hydroxytryptamine receptor 1A (Homo sapiens, UniProt P08908).
T5 sequence (P08908 whole entry): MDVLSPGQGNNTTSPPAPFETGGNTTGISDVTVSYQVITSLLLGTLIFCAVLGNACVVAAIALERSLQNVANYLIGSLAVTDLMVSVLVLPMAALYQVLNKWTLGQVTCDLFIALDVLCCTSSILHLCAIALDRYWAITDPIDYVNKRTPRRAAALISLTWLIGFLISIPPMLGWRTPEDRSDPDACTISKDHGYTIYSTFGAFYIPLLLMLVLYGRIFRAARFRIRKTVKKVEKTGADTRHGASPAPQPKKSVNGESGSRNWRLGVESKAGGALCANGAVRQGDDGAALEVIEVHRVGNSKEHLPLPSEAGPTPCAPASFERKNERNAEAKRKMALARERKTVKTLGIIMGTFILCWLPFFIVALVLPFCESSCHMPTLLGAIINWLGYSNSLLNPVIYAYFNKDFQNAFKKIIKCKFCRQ
The format is functional, cell-based.

In experiment [7] the target is T6, Type-1 angiotensin II receptor (Homo sapiens, UniProt P30556).
T6 sequence (P30556 whole entry): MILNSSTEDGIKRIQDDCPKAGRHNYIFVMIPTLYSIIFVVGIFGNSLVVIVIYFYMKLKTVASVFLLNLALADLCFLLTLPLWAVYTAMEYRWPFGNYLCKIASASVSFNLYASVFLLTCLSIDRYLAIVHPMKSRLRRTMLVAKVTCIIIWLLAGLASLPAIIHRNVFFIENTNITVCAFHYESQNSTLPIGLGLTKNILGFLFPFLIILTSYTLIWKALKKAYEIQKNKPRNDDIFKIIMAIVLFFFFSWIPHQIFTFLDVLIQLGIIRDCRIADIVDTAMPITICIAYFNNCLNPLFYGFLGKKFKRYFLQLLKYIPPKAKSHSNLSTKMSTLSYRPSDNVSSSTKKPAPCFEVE

In another experiment the target is Histamine H3 receptor (Homo sapiens, UniProt Q9Y5N1).
For the next experiment, the target named is Mu-type opioid receptor (Homo sapiens, UniProt P35372). The experiment in a line: biochemical. It counts as functional.
Further: assay procedure not described here.

Sequence of Histamine H2 receptor (P25021 whole entry): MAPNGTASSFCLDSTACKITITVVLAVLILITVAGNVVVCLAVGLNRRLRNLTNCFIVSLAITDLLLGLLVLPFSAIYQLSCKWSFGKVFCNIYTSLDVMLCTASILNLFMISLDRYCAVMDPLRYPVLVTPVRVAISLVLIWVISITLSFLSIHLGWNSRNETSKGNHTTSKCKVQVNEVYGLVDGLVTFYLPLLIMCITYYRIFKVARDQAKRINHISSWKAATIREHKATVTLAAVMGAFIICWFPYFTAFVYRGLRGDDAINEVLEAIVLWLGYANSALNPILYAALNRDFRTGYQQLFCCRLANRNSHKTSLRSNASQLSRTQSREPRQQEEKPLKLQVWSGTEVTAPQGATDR
Sequence of Histamine H3 receptor (Q9Y5N1 whole entry): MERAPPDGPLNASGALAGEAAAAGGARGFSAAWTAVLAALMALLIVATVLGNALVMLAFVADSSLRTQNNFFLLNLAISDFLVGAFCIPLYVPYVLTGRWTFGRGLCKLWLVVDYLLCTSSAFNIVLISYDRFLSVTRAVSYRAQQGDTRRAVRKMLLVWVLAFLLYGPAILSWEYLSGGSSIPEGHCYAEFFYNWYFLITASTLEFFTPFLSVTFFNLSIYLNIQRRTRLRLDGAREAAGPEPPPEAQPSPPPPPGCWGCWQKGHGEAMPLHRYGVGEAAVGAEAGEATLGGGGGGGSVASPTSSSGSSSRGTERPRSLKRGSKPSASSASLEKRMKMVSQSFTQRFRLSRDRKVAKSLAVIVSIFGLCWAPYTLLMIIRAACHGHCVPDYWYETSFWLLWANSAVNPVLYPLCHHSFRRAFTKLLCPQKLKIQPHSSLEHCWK
Sequence of Kappa-type opioid receptor (P41145 whole entry): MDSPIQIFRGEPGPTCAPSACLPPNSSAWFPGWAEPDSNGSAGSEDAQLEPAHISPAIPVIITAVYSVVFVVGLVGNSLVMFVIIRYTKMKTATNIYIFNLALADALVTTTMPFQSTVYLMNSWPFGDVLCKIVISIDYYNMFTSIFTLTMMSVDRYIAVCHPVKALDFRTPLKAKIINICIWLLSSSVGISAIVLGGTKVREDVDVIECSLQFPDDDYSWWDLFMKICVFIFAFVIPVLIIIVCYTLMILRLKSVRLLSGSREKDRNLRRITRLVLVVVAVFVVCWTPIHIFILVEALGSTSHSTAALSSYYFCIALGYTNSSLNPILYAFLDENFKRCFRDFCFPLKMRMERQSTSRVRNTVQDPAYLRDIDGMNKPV
Sequence of Mu-type opioid receptor (P35372 whole entry): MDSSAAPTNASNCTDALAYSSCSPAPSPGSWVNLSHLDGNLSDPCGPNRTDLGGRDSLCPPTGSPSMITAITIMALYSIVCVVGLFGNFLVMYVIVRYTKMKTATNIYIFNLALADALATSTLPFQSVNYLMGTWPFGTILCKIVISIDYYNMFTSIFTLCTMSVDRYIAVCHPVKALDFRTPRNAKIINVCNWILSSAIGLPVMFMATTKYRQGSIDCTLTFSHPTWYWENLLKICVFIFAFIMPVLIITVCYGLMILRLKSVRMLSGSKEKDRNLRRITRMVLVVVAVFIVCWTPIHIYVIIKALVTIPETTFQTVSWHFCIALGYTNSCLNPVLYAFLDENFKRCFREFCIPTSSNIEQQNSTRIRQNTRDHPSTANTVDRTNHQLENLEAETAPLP

A word on the AC50: it is the concentration giving half of the maximal activity seen. With `C[N+]1(C)CCC(=C(c2ccccc2)c2ccccc2)CC1`, the concentration at half-maximal activity (AC50) in experiment [1] is 6.1 µM; in experiment [2], more than 10 µM; in experiment [3], more than 30 µM; in experiment [4], more than 10 µM; in experiment [5] it was more than 10 µM; on Histamine H2 receptor it was more than 10 µM. Moreover, the concentration at half-maximal activity (AC50) in experiment [6] and in [7] was more than 10 µM throughout.
For `CN(C)Cc1nnc2n1-c1ccc(Cl)cc1C(c1ccccc1)=NC2` [ADINAZOLAM], the AC50 in experiment [1] was more than 30 µM; in experiment [2], more than 10 µM; in [3] it was more than 10 µM; in experiment [4], more than 10 µM; in experiment [5], 3.29 µM; at Histamine H2 receptor, more than 10 µM. Moreover, the half-maximal activity concentration (AC50) (on Histamine H3 receptor; in [6]; in [7]) was more than 10 µM each time.
Take `O=C(/C=C/c1cccc(S(=O)(=O)Nc2ccccc2)c1)NO` [BELINOSTAT]: the AC50 in [1] was more than 30 µM; in experiment [2], more than 10 µM; in experiment [3], more than 30 µM; in experiment [4], more than 10 µM; in experiment [5], more than 10 µM; on Histamine H3 receptor it was more than 10 µM. Also, the AC50 in experiment [7] was more than 30 µM.
Turning to `CCOC(=O)c1ccc(N)cc1` [BENZOCAINE], the AC50 in [1] was more than 30 µM; in experiment [2], more than 10 µM; in experiment [3], more than 10 µM; in experiment [4], more than 10 µM; in experiment [5], more than 10 µM; on Histamine H2 receptor it was more than 10 µM. Further, the half-maximal activity concentration (AC50) (at Histamine H3 receptor; in experiment [6]; in experiment [7]) was more than 10 µM in each case.
On to `CC(C)(Oc1ccc(CCNC(=O)c2ccc(Cl)cc2)cc1)C(=O)O` [BEZAFIBRATE], for which the AC50 in [1] is more than 30 µM; in experiment [2] it was more than 10 µM; in experiment [3] it was more than 10 µM; in experiment [4], more than 10 µM; in [5], more than 10 µM; at Histamine H2 receptor, more than 10 µM. Also, the figures for the AC50 (at Histamine H3 receptor; in experiment [6]; in [7]) were more than 10 µM, more than 30 µM and more than 10 µM, respectively.
In the case of `CC(O)(CS(=O)(=O)c1ccc(F)cc1)C(=O)Nc1ccc(C#N)c(C(F)(F)F)c1` (stereo not given) [BICALUTAMIDE], the AC50 in experiment [1] was more than 10 µM; in [2], more than 10 µM; in experiment [3], more than 30 µM; in experiment [4], 13 µM; in [5] it was more than 10 µM; at Histamine H2 receptor, more than 10 µM. Also, the half-maximal activity concentration (AC50) at Histamine H3 receptor is more than 30 µM; in experiment [6], more than 10 µM; in [7] it was more than 30 µM.
Take `CC(=O)O[C@]1(C(C)=O)CC[C@H]2[C@@H]3C=C(Cl)C4=CC(=O)[C@@H]5C[C@@H]5[C@]4(C)[C@H]3CC[C@@]21C` [CYPROTERONE ACETATE]: the AC50 in experiment [1] is more than 30 µM; in [2] it was more than 10 µM; in experiment [3] it was more than 30 µM; in experiment [4], more than 10 µM; in [5], more than 10 µM; at Histamine H3 receptor it was more than 10 µM. The AC50 in [7] is more than 30 µM.
`C/C=C(/C(=C/C)c1ccc(O)cc1)c1ccc(O)cc1` [DIENESTROL]: the half-maximal activity concentration (AC50) in experiment [1] was more than 30 µM; in experiment [2] it was more than 10 µM; in [3], more than 10 µM; at Mu-type opioid receptor, more than 30 µM; in experiment [4] it was more than 10 µM; in experiment [5], more than 10 µM. Moreover, the AC50 (on Histamine H2 receptor; in [6]; in experiment [7]) was more than 10 µM each time.
Regarding `C[C@@H]1C[C@H]2[C@@H]3C[C@H](F)C4=CC(=O)C=C[C@]4(C)[C@@]3(F)[C@@H](O)C[C@]2(C)[C@@]1(OC(=O)c1ccco1)C(=O)SCF` [FLUTICASONE FUROATE], the AC50 in experiment [1] was more than 30 µM; in experiment [2] it was more than 10 µM; in [3], more than 10 µM; in experiment [4], more than 10 µM; in experiment [5] it was more than 10 µM; at Histamine H2 receptor, more than 10 µM. The AC50 in [6] and in experiment [7] was more than 10 µM throughout.
With `COc1ccc([C@@H]2CC(=O)c3c(O)cc(O)cc3O2)cc1O` [HESPERETIN], the concentration at half-maximal activity (AC50) in [1] is more than 30 µM; in experiment [2] it was more than 30 µM; in experiment [3], more than 10 µM; at Mu-type opioid receptor, more than 30 µM; in experiment [4], more than 10 µM; in experiment [5], more than 10 µM. Besides, the concentration at half-maximal activity (AC50) at Histamine H2 receptor is more than 30 µM; in experiment [6], more than 10 µM; in [7] it was more than 10 µM.
Regarding `C=C1c2cccc(O)c2C(=O)C2=C(O)[C@]3(O)C(=O)C(C(N)=O)=C(O)[C@@H](N(C)C)[C@@H]3[C@@H](O)[C@H]12` [METHACYCLINE], the concentration at half-maximal activity (AC50) in [1] was more than 30 µM; in experiment [2] it was more than 10 µM; in experiment [3] it was more than 30 µM; in experiment [4], more than 10 µM; in [5] it was more than 10 µM; on Histamine H2 receptor, more than 10 µM. The concentration at half-maximal activity (AC50) in [6] and in experiment [7] was more than 10 µM in each case.
`CN(Cc1cnc2nc(N)nc(N)c2n1)c1ccc(C(=O)N[C@@H](CCC(=O)O)C(=O)O)cc1` [METHOTREXATE]: the half-maximal activity concentration (AC50) in [1] was more than 30 µM; in experiment [2], more than 10 µM; in [3], more than 30 µM; in experiment [4], more than 10 µM; in [5], more than 10 µM; at Histamine H2 receptor, more than 10 µM. The AC50 was more than 10 µM at Histamine H3 receptor, more than 10 µM in [6] and more than 30 µM in experiment [7].
Take `O=C1c2ccccc2C(=O)C1c1ccccc1` [PHENINDIONE]: the AC50 in experiment [1] is more than 30 µM; in experiment [2], more than 10 µM; in [3], more than 10 µM; in experiment [4] it was more than 10 µM; in experiment [5], more than 10 µM; on Histamine H2 receptor, more than 10 µM. For the same compound, the concentration at half-maximal activity (AC50) was more than 10 µM at Histamine H3 receptor, more than 30 µM in experiment [6] and more than 10 µM in experiment [7].
